From patent US8816085B2 (Takeda GmbH, priority 2009, dated 2014)

Target: T1, PDE5A1 (human PDE5 from platelets) (Homo sapiens, UniProt O76074)
T1 construct: from tissue; host or cells: platelets from fresh blood of human donors (10,000 g supernatant of sonified platelets)
Experiment: Inhibition of type 5 phosphodiesterase (PDE5) activity, modified SPA test
Type: biochemical
Conditions: PDE5-containing human platelet lysate, 0.5 μM cGMP, value classes, read-out: PDE5A1 inhibitory values [measured as −logIC50 (mol/l)] (converted)
Method: Method for Measuring Inhibition of the Type 5 Phosphodiesterase (PDE5) Activity:
As a source for human PDE5, platelets are used. For that purpose, 150 ml fresh blood from human donors anticoagulated with citrate [final concentration 0.3% (w/v)] is centrifuged at 200 g for 10 min to obtain the so-called platelet-rich-plasma (PRP) as a supernatant. 1/10 volume of ACD solution (85 mM Na3-citrate, 111 mM D-glucose, 71 mM citric acid, pH 4.4) is added to 9/10 volume of PRP. After centrifugation (1,400 g, 10 min) the cell pellet is resuspended in 3 ml homogenization buffer (NaCl 140 mM, KCl 3.8 mM, EGTA (ethylene glycol tetraacetic acid) 1 mM, MgCl2 1 mM, Tris-HCl 20 mM, beta-mercaptoethanol 1 mM, pH 8.2) plus protease-inhibitor mix giving rise to the final concentrations of 0.5 mM Pefablock (Roche), 10 μM Leupeptin, 5 μM Trypsininhibitor, 2 mM Benzamidin and 10 μM Pepstatin A. The suspension is sonified and thereafter centrifuged for 15 min at 10,000 g. The resulting supernatant (platelet lysate) is used for enzymatic testings.
PDE5A1 activity is inhibited by the compounds of the present subject matter in a modified SPA (scintillation proximity assay) test, supplied by Amersham Biosciences (see procedural instructions “phosphodiesterase [3H]cAMP SPA enzyme assay, code TRKQ 7090”), carried out in 96-well microtitre plates (MTP's). The test volume is 100 μl and contains 20 mM Tris buffer (pH 7.4), 0.1 mg of BSA (bovine serum albumin)/ml, 5 mM Mg^2+, 1 μM motapizone, 10 nM PDE2 inhibitor 2-(3,4-dimethoxybenzyl)-7-[(1R,2R)-2-hydroxy-1-(2-phenylethyl)propyl]-5-methylimidazo[5,1-t][1,2,4]triazin-4(3H)-one, 0.5 μM cGMP (cyclic guanosine monophosphate) (including about 50,000 cpm of [3H]cGMP as a tracer), 1 μl of the respective compound dilution in dimethylsulfoxide (DMSO) and sufficient PDE5-containing platelet lysat (10,000×g supernatant, see above) to ensure that 10-20 wt % of the cGMP is converted under the said experimental conditions. […] After a preincubation of 5 min at 37° C., the reaction is started by adding the substrate (cGMP) and the assay is incubated for a further 15 min; after that, it is stopped by adding SPA beads (50 μl). In accordance with the manufacturer's instructions, the SPA beads had previously been resuspended in water, but are then diluted 1:3 (v/v) in water; the diluted solution also contains 3 mM 8-methoxymethyl-3-isobutyl-1-methylxanthine (IBMX) to ensure a complete PDE activity stop. After the beads have been sedimented (>30 min), the MTP's are analyzed in commercially available luminescence detection devices. The corresponding IC50 values of the compounds for the inhibition of PDE activity are determined from the concentration-effect curves by means of non-linear regression.

Row | IC50 [nM] | SMILES
1 | < 1 | CC(=O)N[C@H]1CC[C@H](NC(=O)c2c(C)[nH]c3c(-c4c(OCC5CC5)ccc5c4OCO5)ccnc23)CC1 [Example E05, N-(trans-4-Acetamidocyclohexyl)-7-[5-(cyclopropylmethoxy)-1,3-benzodioxol-4-yl]-2-methyl-1H-pyrrolo[3,2-b]pyridine-3-carboxamide]
2 | < 1 | CC(=O)N[C@H]1CC[C@@H](NC(=O)c2c(C)[nH]c3c(-c4c(OCC5CC5)ccc5c4OCO5)ccnc23)CC1 [Example E06, N-(cis-4-acetamidocyclohexyl)-7-[5-(cyclopropylmethoxy)-1,3-benzodioxol-4-yl]-2-methyl-1H-pyrrolo[3,2-b]pyridine-3-carboxamide]
3 | < 1 | CCC(=O)N[C@H]1CC[C@@H](NC(=O)c2c(C)[nH]c3c(-c4c(OCC5CC5)ccc5c4OCO5)ccnc23)CC1 [Example E07, 7-[5-(Cyclopropylmethoxy)-1,3-benzodioxol-4-yl]-2-methyl-N-[cis-4-(propionylamino)cyclohexyl]-1H-pyrrolo[3,2-b]pyridine-3-carboxamide]
4 | < 1 | COCC(=O)N[C@H]1CC[C@@H](NC(=O)c2c(C)[nH]c3c(-c4c(OCC5CC5)ccc5c4OCO5)ccnc23)CC1 [Example E08, 7-[5-(Cyclopropylmethoxy)-1,3-benzodioxol-4-yl]-N-{cis-4-[(methoxyacetyl)amino]cyclohexyl}-2-methyl-1H-pyrrolo[3,2-b]pyridine-3-carboxamide]
5 | < 1 | CCOC(=O)N[C@H]1CC[C@@H](NC(=O)c2c(C)[nH]c3c(-c4c(OCC5CC5)ccc5c4OCO5)ccnc23)CC1 [Example E09, Ethyl {cis-4-[({7-[5-(cyclopropylmethoxy)-1,3-benzodioxol-4-yl]-2-methyl-1H-pyrrolo[3,2-b]pyridin-3-yl}carbonyl)amino]cyclohexyl}carbamate]
6 | < 1 | CC(=O)N1CCC(NC(=O)c2c(C)[nH]c3c(-c4ccc(F)cc4OCC4CC4)ccnc23)CC1 [Example E10, N-(1-Acetylpiperidin-4-yl)-7-[2-(cyclopropylmethoxy)-4-fluorophenyl]-2-methyl-1H-pyrrolo[3,2-b]pyridine-3-carboxamide]
7 | < 1 | CCC(=O)N1CCC(NC(=O)c2c(C)[nH]c3c(-c4ccc(F)cc4OCC4CC4)ccnc23)CC1 [Example E11, 7-[2-(Cyclopropylmethoxy)-4-fluorophenyl]-2-methyl-N-(1-propanoylpiperidin-4-yl)-1H-pyrrolo[3,2-b]pyridine-3-carboxamide]
8 | 1 to 10 | COCC(=O)N1CCC(NC(=O)c2c(C)[nH]c3c(-c4ccc(F)cc4OCC4CC4)ccnc23)CC1 [Example E12, 7-[2-(Cyclopropylmethoxy)-4-fluorophenyl]-N-[1-(methoxyacetyl)piperidin-4-yl]-2-methyl-1H-pyrrolo[3,2-b]pyridine-3-carboxamide]
9 | < 1 | CC(=O)N[C@H]1CC[C@H](NC(=O)c2c(C)[nH]c3c(-c4ccc(F)cc4OCC4CC4)ccnc23)CC1 [Example E13, N-[trans-4-(Acetylamino)cyclohexyl]-7-[2-(cyclopropylmethoxy)-4-fluorophenyl]-2-methyl-1H-pyrrolo[3,2-b]pyridine-3-carboxamide]
10 | < 1 | CCC(=O)N[C@H]1CC[C@H](NC(=O)c2c(C)[nH]c3c(-c4ccc(F)cc4OCC4CC4)ccnc23)CC1 [Example E14]
11 | < 1 | COCC(=O)N[C@H]1CC[C@H](NC(=O)c2c(C)[nH]c3c(-c4ccc(F)cc4OCC4CC4)ccnc23)CC1 [Example E15, 7-[2-(Cyclopropylmethoxy)-4-fluorophenyl]-N-{trans-4-[(methoxyacetyl)amino]cyclohexyl}-2-methyl-1H-pyrrolo[3,2-b]pyridine-3-carboxamide]
12 | 1 to 10 | CC(=O)N[C@H]1CC[C@@H](NC(=O)c2c(C)[nH]c3c(-c4ccc(F)cc4OCC4CC4)ccnc23)CC1 [Example E16, N-[cis-4-(Acetylamino)cyclohexyl]-7-[2-(cyclopropylmethoxy)-4-fluorophenyl]-2-methyl-1H-pyrrolo[3,2-b]pyridine-3-carboxamide]
13 | 1 to 10 | CCC(=O)N[C@H]1CC[C@@H](NC(=O)c2c(C)[nH]c3c(-c4ccc(F)cc4OCC4CC4)ccnc23)CC1 [Example E17]
14 | 1 to 10 | COCC(=O)N[C@H]1CC[C@@H](NC(=O)c2c(C)[nH]c3c(-c4ccc(F)cc4OCC4CC4)ccnc23)CC1 [Example E18, 7-[2-(Cyclopropylmethoxy)-4-fluorophenyl]-N-{cis-4-[(methoxyacetyl)amino]cyclohexyl}-2-methyl-1H-pyrrolo[3,2-b]pyridine-3-carboxamide]
15 | 1 to 10 | CC(=O)N1CCC(NC(=O)c2c(C)[nH]c3c(-c4cc(F)ccc4OCC4CC4)ccnc23)CC1 [Example E19, N-(1-Acetylpiperidin-4-yl)-7-[2-(cyclopropylmethoxy)-5-fluorophenyl]-2-methyl-1H-pyrrolo[3,2-b]pyridine-3-carboxamide]
16 | < 1 | CCC(=O)N1CCC(NC(=O)c2c(C)[nH]c3c(-c4cc(F)ccc4OCC4CC4)ccnc23)CC1 [Example E20, 7-[2-(Cyclopropylmethoxy)-5-fluorophenyl]-2-methyl-N-(1-propanoylpiperidin-4-yl)-1H-pyrrolo[3,2-b]pyridine-3-carboxamide]
17 | 1 to 10 | COCC(=O)N1CCC(NC(=O)c2c(C)[nH]c3c(-c4cc(F)ccc4OCC4CC4)ccnc23)CC1 [Example E21, 7-[2-(Cyclopropylmethoxy)-5-fluorophenyl]-N-[1-(methoxyacetyl)piperidin-4-yl]-2-methyl-1H-pyrrolo[3,2-b]pyridine-3-carboxamide]
18 | < 1 | CC(=O)N[C@H]1CC[C@H](NC(=O)c2c(C)[nH]c3c(-c4cc(F)ccc4OCC4CC4)ccnc23)CC1 [Example E22, N-[trans-4-(Acetylamino)cyclohexyl]-7-[2-(cyclopropylmethoxy)-5-fluorophenyl]-2-methyl-1H-pyrrolo[3,2-b]pyridine-3-carboxamide]
19 | < 1 | CCC(=O)N[C@H]1CC[C@H](NC(=O)c2c(C)[nH]c3c(-c4cc(F)ccc4OCC4CC4)ccnc23)CC1 [Example E23, 7-[2-(Cyclopropylmethoxy)-5-fluorophenyl]-2-methyl-N-[trans-4-(propanoylamino)cyclohexyl]-1H-pyrrolo[3,2-b]pyridine-3-carboxamide]
20 | < 1 | COCC(=O)N[C@H]1CC[C@H](NC(=O)c2c(C)[nH]c3c(-c4cc(F)ccc4OCC4CC4)ccnc23)CC1 [Example E24, 7-[2-(Cyclopropylmethoxy)-5-fluorophenyl]-N-{trans-4-[(methoxyacetyl)amino]cyclohexyl}-2-methyl-1H-pyrrolo[3,2-b]pyridine-3-carboxamide]
21 | 1 to 10 | CC(=O)N[C@H]1CC[C@@H](NC(=O)c2c(C)[nH]c3c(-c4cc(F)ccc4OCC4CC4)ccnc23)CC1 [Example E25, N-[cis-4-(Acetylamino)cyclohexyl]-7-[2-(cyclopropylmethoxy)-5-fluorophenyl]-2-methyl-1H-pyrrolo[3,2-b]pyridine-3-carboxamide]
22 | 1 to 10 | CCC(=O)N[C@H]1CC[C@@H](NC(=O)c2c(C)[nH]c3c(-c4cc(F)ccc4OCC4CC4)ccnc23)CC1 [Example E26, 7-[2-(Cyclopropylmethoxy)-5-fluorophenyl]-2-methyl-N-[cis-4-(propanoylamino)cyclohexyl]-1H-pyrrolo[3,2-b]pyridine-3-carboxamide]
